Our source for the IC50 values is patent publication US9931324B2, “Indolizine derivatives and their use in neurodegenerative diseases” (Merck Patent GmbH, priority 2014, dated 2018).

Experiment [1] deals with T1, P2X7 (Homo sapiens, UniProt Q99572).
T1 sequence (Q99572 1-595): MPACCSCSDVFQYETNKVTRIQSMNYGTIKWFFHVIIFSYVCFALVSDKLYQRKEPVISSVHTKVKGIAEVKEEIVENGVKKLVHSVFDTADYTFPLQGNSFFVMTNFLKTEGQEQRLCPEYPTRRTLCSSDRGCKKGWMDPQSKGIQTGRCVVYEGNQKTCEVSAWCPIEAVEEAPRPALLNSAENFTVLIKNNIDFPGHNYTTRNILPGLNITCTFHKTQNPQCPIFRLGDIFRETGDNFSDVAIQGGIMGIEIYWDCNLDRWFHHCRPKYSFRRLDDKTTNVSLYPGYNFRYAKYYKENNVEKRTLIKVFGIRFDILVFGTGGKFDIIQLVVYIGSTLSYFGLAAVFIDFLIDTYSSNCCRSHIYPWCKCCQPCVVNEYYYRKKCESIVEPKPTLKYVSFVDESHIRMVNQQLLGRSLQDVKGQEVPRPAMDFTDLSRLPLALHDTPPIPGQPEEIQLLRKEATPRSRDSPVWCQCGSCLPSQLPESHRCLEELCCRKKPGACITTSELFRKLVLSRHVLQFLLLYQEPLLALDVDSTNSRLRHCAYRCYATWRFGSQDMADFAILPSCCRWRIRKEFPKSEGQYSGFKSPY
Nature of the experiment: Pore permeation assay (YO PRO dye uptake, BzATP-induced). Details: expressed in transfected cells; host or cells: HEK293. Particulars: HEK293 transfected with human P2X7 receptor, BzATP 10 uM, read-out: hP2X7 IC50. It counts as cell-based. Put shortly: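 HEK293 cells overexpressing human P2X7 were plated overnight, then placed in low-divalent HEPES buffer pH 7.4 (0.1 mM CaCl2, 125 mM NaCl). Compounds (10 points from 2.5 μM) were preincubated for 20 min at room temperature. YO-PRO (1 μM) was added with BzATP (10 μM), and dye uptake was read by fluorescence after 30 min.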

For experiment [2], the target named is T1, P2X7. Nature of the experiment: IL-1β release assay in THP-1 cells (sandwich ELISA, BzATP-stimulated). It counts as cell-based. Details: endogenous in cells; host or cells: THP-1 cells (PMA-differentiated, LPS-primed). The note with it: LPS primed, 0.8 mM BzATP, mature IL-1β release, read-out: hTHP-1/IL-ib IC50. A general note: In an ELISA, binding on a coated surface is turned into a signal by an enzyme label.

With `C[C@@H]1CCC[C@](O)(CNC(=O)c2cc(C3CCC3)n3cccc(Cl)c23)C1` [Compound 71, 8-chloro-3-cyclobutyl-N-(((1R,3R)-1-hydroxy-3-methylcyclohexyl)methyl) indolizine-1-carboxamide], the IC50 at P2X7 [1] and at P2X7 [2] was 10 to 100 nM in each case.

Take `O=C(NC[C@]1(O)CCCC(F)(F)C1)c1cc(C2CCOC2)n2cccc(Cl)c12` (stereo partly drawn) [Compound 67, 8-chloro-N—(((S)-3,3-difluoro-1-hydroxycyclohexyl)methyl)-3-(tetrahydrofuran-3-yl)indolizine-1-carboxamide]: the IC50 on P2X7 [1] and at P2X7 [2] was 10 to 100 nM throughout.

Consider `COCCc1cc(C(=O)NCC2(O)CCC(F)(F)CC2)c2c(Cl)cccn12` [Compound 53, 8-chloro-N-((4,4-difluoro-1-hydroxycyclohexyl)methyl)-3-(2-methoxyethyl)indolizine-1-carboxamide], for which the IC50 at P2X7 [1] and on P2X7 [2] was 10 to 100 nM in each case.

In the case of `COCCc1cc(C(=O)NCC2CCCCCC2)c2c(Cl)cccn12` [Compound 1, 8-chloro-N-(cycloheptylmethyl)-3-(2-methoxyethyl)indolizine-1-Carboxamide], the IC50 at P2X7 [1] was in the range of 10 to 100 nM; at P2X7 [2] it was 101 to 500 nM.

As for `COCCc1cc(C(=O)NC[C@]2(O)CCCC(F)(F)C2)c2c(Cl)cccn12` [Compound 64, 8-Chloro-3-(2-methoxy-ethyl)-indolizine-1-carboxylic Acid ((S)-3,3-difluoro-1-hydroxy-cyclohexylmethyl)-amide], the values for the IC50 at P2X7 [1] and on P2X7 [2] were 10 to 100 nM and 101 to 500 nM, respectively.

For `O=C(NCC1CCC(F)(F)CC1)c1cc(CCO)n2cccc(Cl)c12` [Compound 51, 8-chloro-N-((4,4-difluorocyclohexyl)methyl)-3-(2-hydroxyethyl)indolizine-1-carboxamide], the values for the IC50 at P2X7 [1] and on P2X7 [2] were 10 to 100 nM and 101 to 500 nM, respectively.

Consider `O=C(NCC1CCC(F)(F)CC1)c1cc(CC2CCOC2)n2cccc(Cl)c12` (centres unmarked) [Compound 30, 8-chloro-N-((4,4-difluorocyclo-hexyl)methyl)-3-((tetrahydrofuran-3-yl)methyl)indolizine-1-carboxamide], for which the IC50 on P2X7 [1] was 10 to 100 nM; at P2X7 [2] it was 101 to 500 nM.

For `CC1CC(O)(CNC(=O)c2cc(C3CCOCC3)n3cccc(Cl)c23)CCC1(F)F` (centres unmarked) [Compound 41, 8-chloro-N-((4,4-difluoro-1-hydroxy-3-methylcyclohexyl)methyl)-3-(tetrahydro-2H-pyran-4-yl)indolizine-1-carboxamide], the IC50 was 101 to 500 nM at P2X7 [1] and 10 to 100 nM at P2X7 [2].

Regarding `O=C(NCC1CCC(F)(F)CC1)c1cc(I)n2cccc(Cl)c12` [Compound 9], the IC50 on P2X7 [1] and on P2X7 [2] was 101 to 500 nM throughout.

Turning to `O=C(NCC1(O)CCC(F)(F)CC1)c1cc(C2CCCO2)n2cccc(Cl)c12` (centres unmarked) [Compound 48, 8-Chloro-3-(tetrahydro-furan-2-yl)-indolizine-1-carboxylic Acid (4,4-difluoro-1-hydroxycyclohexyl methyl)-amide], the IC50 at P2X7 [1] and at P2X7 [2] was 10 to 100 nM throughout.

Consider `CCOCCc1cc(C(=O)NCC2(O)CCC(F)(F)CC2)c2c(Cl)cccn12` [Compound 69, 8-Chloro-3-(2-ethoxy-ethyl)-indolizine-1-carboxylic Acid (4,4-difluoro-1-hydroxy-cyclohexylmethyl)-amide], for which the IC50 on P2X7 [1] and on P2X7 [2] was 101 to 500 nM throughout.

Take `COCCc1cc(C(=O)NCC2(O)CCCC3(CC3)C2)c2c(Cl)cccn12` (centres unmarked) [Compound 29, 8-chloro-N-((5-hydroxyspiro[2.5]octan-5-yl)methyl)-3-(2-methoxyethyl) indolizine-1-carboxamide]: the IC50 at P2X7 [1] and at P2X7 [2] was 101 to 500 nM each time.

On to `O=C(NCC1(O)CCC(F)(F)CC1)c1cc(C2CCC2)n2cccc(Cl)c12` [Compound 12, 8-chloro-3-cyclobutyl-N-((4,4-difluoro-1-hydroxycyclohexyl)methyl) indolizine-1-carboxamide], for which the figures for the IC50 on P2X7 [1] and on P2X7 [2] were 10 to 100 nM and 101 to 500 nM, respectively.
